Measurements: the NIST ThermoML archive (doi:10.1016/j.jct.2017.07.008)
“And” between values parts separate entries of the source, which are not always exact repeats. Equal values may be shown once.

Details: for surface tension liquid-gas: Drop volume; for viscosity / speed of sound / mass density: Liquid; for viscosity: Capillary tube (Ostwald / Ubbelohde) method; for speed of sound: Frequency=3 MHz, Single path-length method; for mass density: Vibrating tube method

O=Cc1cccs1 [2-thiophenealdehyde]
Details | surface tension liquid-gas [mN/m]
283.15 K | 47.82
285.65 K | 47.52
288.15 K | 47.22
290.65 K | 46.92
293.15 K | 46.6
295.65 K | 46.27
298.15 K | 45.99

Details | mass density | speed of sound [m/s] | viscosity [mPa·s]
283.15 K, 100 kPa | 1232.44 kg/m3 and 1232.47 kg/m3 | 1512.8 | 2.796
283.15 K, 2000 kPa | 1233.56 kg/m3 | – | –
283.15 K, 5000 kPa | 1235.26 kg/m3 | – | –
283.15 K, 7000 kPa | 1236.39 kg/m3 | – | –
283.15 K, 10000 kPa | 1238.06 kg/m3 | – | –
283.15 K, 15000 kPa | 1240.76 kg/m3 | – | –
283.15 K, 20000 kPa | 1243.38 kg/m3 | – | –
283.15 K, 25000 kPa | 1245.94 kg/m3 | – | –
283.15 K, 30000 kPa | 1248.47 kg/m3 | – | –
283.15 K, 35000 kPa | 1250.93 kg/m3 | – | –
283.15 K, 40000 kPa | 1253.33 kg/m3 | – | –
283.15 K, 45000 kPa | 1255.69 kg/m3 | – | –
283.15 K, 50000 kPa | 1258.02 kg/m3 | – | –
283.15 K, 55000 kPa | 1260.26 kg/m3 | – | –
283.15 K, 60000 kPa | 1262.44 kg/m3 | – | –
283.15 K, 65000 kPa | 1264.58 kg/m3 | – | –
285.65 K, 100 kPa | 1229.92 kg/m3 | 1504.3 | 2.661
288.15 K, 100 kPa | 1227.39 kg/m3 | 1495.9 | 2.513
288.15 K, 2000 kPa | 1228.51 kg/m3 | – | –
288.15 K, 5000 kPa | 1230.24 kg/m3 | – | –
288.15 K, 7000 kPa | 1231.38 kg/m3 | – | –
288.15 K, 10000 kPa | 1233.07 kg/m3 | – | –
288.15 K, 15000 kPa | 1235.82 kg/m3 | – | –
288.15 K, 20000 kPa | 1238.51 kg/m3 | – | –
288.15 K, 25000 kPa | 1241.13 kg/m3 | – | –
288.15 K, 30000 kPa | 1243.69 kg/m3 | – | –
288.15 K, 35000 kPa | 1246.2 kg/m3 | – | –
288.15 K, 40000 kPa | 1248.64 kg/m3 | – | –
288.15 K, 45000 kPa | 1251.04 kg/m3 | – | –
288.15 K, 50000 kPa | 1253.38 kg/m3 | – | –
288.15 K, 55000 kPa | 1255.68 kg/m3 | – | –
288.15 K, 60000 kPa | 1257.93 kg/m3 | – | –
288.15 K, 65000 kPa | 1260.14 kg/m3 | – | –
290.65 K, 100 kPa | 1224.88 kg/m3 | 1487.4 | 2.386
293.15 K, 100 kPa | 1222.35 kg/m3 and 1222.36 kg/m3 | 1479.1 | 2.267
293.15 K, 2000 kPa | 1223.5 kg/m3 | – | –
293.15 K, 5000 kPa | 1225.27 kg/m3 | – | –
293.15 K, 7000 kPa | 1226.44 kg/m3 | – | –
293.15 K, 10000 kPa | 1228.16 kg/m3 | – | –
293.15 K, 15000 kPa | 1230.98 kg/m3 | – | –
293.15 K, 20000 kPa | 1233.73 kg/m3 | – | –
293.15 K, 25000 kPa | 1236.41 kg/m3 | – | –
293.15 K, 30000 kPa | 1239.02 kg/m3 | – | –
293.15 K, 35000 kPa | 1241.57 kg/m3 | – | –
293.15 K, 40000 kPa | 1244.07 kg/m3 | – | –
293.15 K, 45000 kPa | 1246.51 kg/m3 | – | –
293.15 K, 50000 kPa | 1248.9 kg/m3 | – | –
293.15 K, 55000 kPa | 1251.24 kg/m3 | – | –
293.15 K, 60000 kPa | 1253.53 kg/m3 | – | –
293.15 K, 65000 kPa | 1255.77 kg/m3 | – | –
295.65 K, 100 kPa | 1219.84 kg/m3 | 1470.8 | 2.162
298.15 K, 100 kPa | 1217.32 kg/m3 | 1462.4 | 2.053
298.15 K, 2000 kPa | 1218.49 kg/m3 | – | –
298.15 K, 5000 kPa | 1220.31 kg/m3 | – | –
298.15 K, 7000 kPa | 1221.5 kg/m3 | – | –
298.15 K, 10000 kPa | 1223.27 kg/m3 | – | –
298.15 K, 15000 kPa | 1226.15 kg/m3 | – | –
